Experiment [1] has as its target Serine/threonine-protein kinase RIO2 (Homo sapiens) (UniProt Q9BVS4). The experiment is described as follows: Inhibition of N-terminal GST-fused full length human recombinant RIOK2 expressed in baculovirus Sf21 cells assessed as reduction in kinase auto-phosphorylation at 1 uM in presence of ATP incubated for 1 hr by ELISA method.
Experiment [2] has the same target. The experiment is described as follows: Inhibition of N-terminal GST-fused full length human recombinant RIOK2 expressed in baculovirus Sf21 cells assessed as reduction in kinase auto-phosphorylation at 10 uM in presence of ATP incubated for 1 hr by ELISA method.
Experiment [3] relates to FaDu. The experiment is described as follows: Cytotoxic activity against human FADU bulk cells incubated for 72 hrs by Cell-titer-Glo luminescence assay. The experiment is classed as functional, cell-based.
In experiment [4] the test system is A549. Nature of the experiment: Cytotoxic activity against human A549 bulk cells incubated for 72 hrs by Cell-titer-Glo luminescence assay. The experiment is classed as functional, cell-based. Particulars: A549, 72 h.
Experiment [5] deals with ACHN. The experiment is described as follows: Cytotoxic activity against human ACHN bulk cells incubated for 72 hrs by Cell-titer-Glo luminescence assay. Type of experiment: functional, cell-based.
Experiment [6] concerns FaDu. Nature of the experiment: Cytotoxic activity against human FADU cancer stem cells incubated for 72 hrs by Cell-titer-Glo luminescence assay. Type of experiment: functional, cell-based.
Experiment [7] deals with A549. Nature of the experiment: Cytotoxic activity against human A549 cancer stem cells incubated for 72 hrs by Cell-titer-Glo luminescence assay. The experiment is classed as functional, cell-based. Particulars: A549, 72 h.
Experiment [8] has as its system ACHN. Nature of the experiment: Cytotoxic activity against human ACHN cancer stem cells incubated for 72 hrs by Cell-titer-Glo luminescence assay. The experiment is classed as functional, cell-based.
The target of experiment [9] is AMP-activated protein kinase, AMPK (Homo sapiens) (UniProt P54646+O43741+P54619+Q9UGJ0+Q9Y478+Q13131+Q9UGI9). The experiment is described as follows: Inhibition of AMPK in human HeLa cells assessed as kinase phosphorylation level at 5 uM incubated for 6 hrs by SDS-PAGE based chemiluminescence assay. The experiment is classed as cell-based. The arrangement: scale not given: the % may be the effect or the level left.

In experiment [10] the target is T1, Ribosomal protein S6 kinase (Homo sapiens) (UniProt P51812+Q9UBS0+O75676+Q15349+O75582+P23443+Q9UK32+Q15418). Nature of the experiment: Inhibition of RPS6 kinase in human HeLa cells assessed as p-RPS6 Ser235/236 phosphorylation level at 5 uM incubated for 6 hrs by SDS-PAGE based chemiluminescence assay. Also on record: scale not given: the % may be the effect or the level left. Type of experiment: cell-based.

For experiment [11], the target named is T1, Ribosomal protein S6 kinase (Homo sapiens). Nature of the experiment: Inhibition of RPS6 kinase in human HeLa cells assessed as p-RPS6 Ser240/244 phosphorylation level at 5 uM incubated for 6 hrs by SDS-PAGE based chemiluminescence assay. The experiment is classed as cell-based. Also on record: scale not given: the % may be the effect or the level left.

Sequence of Serine/threonine-protein kinase RIO2 (Homo sapiens) (Q9BVS4 whole entry, looked up, the tested form may be a part): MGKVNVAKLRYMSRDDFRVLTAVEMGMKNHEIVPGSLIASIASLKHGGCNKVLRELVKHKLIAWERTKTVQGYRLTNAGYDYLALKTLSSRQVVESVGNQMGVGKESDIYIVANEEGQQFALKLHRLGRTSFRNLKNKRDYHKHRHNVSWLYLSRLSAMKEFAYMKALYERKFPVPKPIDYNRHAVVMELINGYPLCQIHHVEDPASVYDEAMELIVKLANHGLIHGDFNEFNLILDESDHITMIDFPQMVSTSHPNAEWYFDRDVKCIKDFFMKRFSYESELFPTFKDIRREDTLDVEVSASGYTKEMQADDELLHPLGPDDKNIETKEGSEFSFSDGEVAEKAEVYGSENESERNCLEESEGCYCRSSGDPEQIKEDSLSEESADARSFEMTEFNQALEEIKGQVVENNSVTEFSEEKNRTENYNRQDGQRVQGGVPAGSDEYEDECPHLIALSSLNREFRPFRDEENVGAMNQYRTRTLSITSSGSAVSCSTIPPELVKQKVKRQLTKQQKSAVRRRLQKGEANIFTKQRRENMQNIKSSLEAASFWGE

Take `Cc1[nH]c(/C=C2\C(=O)Nc3ccc(-c4cnn(-c5ccccc5)c4)cc32)c(C)c1C(=O)NC[C@H]1CCCN1`: the inhibition in [1] was 9%; in [2] it was 126%.
As for `CCN(CC)CCNC(=O)c1c(C)[nH]c(/C=C2\C(=O)Nc3ccc(-c4cnn(C5CCOCC5)c4)cc32)c1C`, the half-maximal inhibitory concentration (IC50) turned out to be 4.22 µM in the experiment on FaDu [3], 16 µM in the experiment with A549 [4], 10.4 µM in the experiment with ACHN [5] and 2.57 µM in the experiment on FaDu [6]. In addition, the inhibition in experiment [1] turned out to be 32%; in [2], 68%.
Consider `CCN(CC)CCNC(=O)c1c(C)[nH]c(/C=C2\C(=O)Nc3ccc(-c4ncc(-c5ccccc5)o4)cc32)c1C`, for which the IC50 was 7.35 µM in the experiment on FaDu [3], 27.6 µM in the experiment on FaDu [6] and 0.35 µM with A549 [7]. The inhibition worked out at 32% in [1] and 56% in experiment [2].
`CCN(CC)CCNC(=O)c1c(C)[nH]c(/C=C2\C(=O)Nc3ccc(-c4cnn(-c5cccnc5)c4)cc32)c1C`: the inhibition in experiment [1] was 42%; in [2], 82%.
In the same order, the values of `CCOCCCNC(=O)c1c(C)[nH]c(/C=C2\C(=O)Nc3ccc(-c4cnn(-c5ccccc5)c4)cc32)c1C` are -7% and 43%.
On to `CCN(CC)CCNC(=O)c1c(C)[nH]c(/C=C2\C(=O)Nc3ccc(-c4ccnn4-c4ccc(Cl)c(Cl)c4)cc32)c1C`, for which the figures for the inhibition in experiment [1] and in experiment [2] were 18% and 87%, respectively.
As to `Cc1[nH]c(/C=C2\C(=O)Nc3ccc(-c4cnn(-c5ccccc5)c4)cc32)c(C)c1C(=O)NC[C@@H]1CCCN1`, the results for the inhibition in experiment [1] and in [2] were 13% and 94%, respectively.
The like results for `CCN(CC)CCNC(=O)c1c(C)[nH]c(/C=C2\C(=O)Nc3ccc(-c4ccnn4-c4ccncc4)cc32)c1C` were, in that order, -6% and 44%.
In the case of `CCN(CC)CCNC(=O)c1c(C)[nH]c(/C=C2\C(=O)Nc3ccc(-c4cnn(-c5ccccc5Cl)c4)cc32)c1C`, the inhibition stood at 4% in experiment [1] and 99% in [2].
In the same order, the values of `Cc1[nH]c(/C=C2\C(=O)Nc3ccc(-c4cnn(-c5ccccc5)c4)cc32)c(C)c1C(=O)N[C@H]1CCCNC1` are 1.4% and 122%.
The like results for `CCN(CC)CCNC(=O)c1c(C)[nH]c(/C=C2\C(=O)Nc3ccc(-c4cnn(-c5cnccn5)c4)cc32)c1C` were, in that order, 47% and 95%.
For the compound `CCN(CC)CCNC(=O)c1c(C)[nH]c(/C=C2\C(=O)Nc3ccc(-c4cnn(-c5cscn5)c4)cc32)c1C`, the values for the inhibition in experiment [1] and in experiment [2] were 41% and 99%, respectively.
In the same order, the values of `CCN(CC)CCNC(=O)c1c(C)[nH]c(/C=C2\C(=O)Nc3ccc(-c4ccnn4-c4cccc(C)c4)cc32)c1C` are 29% and 137%.
The like results for `Cc1[nH]c(/C=C2\C(=O)Nc3ccc(-c4cnn(-c5ccccc5)c4)cc32)c(C)c1C(=O)NCC1(N)CCCC1` were, in that order, 7% and 65%.
For `CCN(CC)CCNC(=O)c1c(C)[nH]c(/C=C2\C(=O)Nc3ccc(-c4ccnn4-c4cccc(OC)c4)cc32)c1C`, the inhibition in experiment [1] turned out to be 51%; in [2], 98%.
In the same order, the values of `CCN(CC)CCNC(=O)c1c(C)[nH]c(/C=C2\C(=O)Nc3ccc(-c4ccnn4-c4ccc(F)cc4)cc32)c1C` are 39% and 104%.
Turning to `CCN(CC)CCNC(=O)c1c(C)[nH]c(/C=C2\C(=O)Nc3ccc(-c4cnn(-c5nccs5)c4)cc32)c1C`, the inhibition in experiment [1] was 18%; in [2], 111%.
In the same order, the values of `Cc1[nH]c(/C=C2\C(=O)Nc3ccc(-c4cnn(-c5ccccc5)c4)cc32)c(C)c1C(=O)NC1CCNCC1` are 17% and 140%.
Regarding `Cc1[nH]c(/C=C2\C(=O)Nc3ccc(-c4cnn(-c5ccccc5)c4)cc32)c(C)c1C(=O)NCCc1ncc[nH]1`, the values for the inhibition in [1] and in experiment [2] were -2% and 25%, respectively.
In the same order, the values of `CCN(CC)CCNC(=O)c1c(C)[nH]c(/C=C2\C(=O)Nc3ccc(-c4ccnn4-c4ccc(C(F)(F)F)cc4)cc32)c1C` are 9% and 68%.
For `Cc1[nH]c(/C=C2\C(=O)Nc3ccc(-c4cnn(-c5ccccc5)c4)cc32)c(C)c1C(=O)N[C@H]1[C@@H]2CNC[C@@H]21`, the inhibition in experiment [1] was found to be 22%; in [2] it was 134%.
The like results for `CCN(CC)CCNC(=O)c1c(C)[nH]c(/C=C2\C(=O)Nc3ccc(-c4cnn(-c5ccncn5)c4)cc32)c1C` were, in that order, 40% and 109%.
In the case of `CCN(CC)CCNC(=O)c1c(C)[nH]c(/C=C2\C(=O)Nc3ccc(-c4cnn(-c5ccc(S(N)(=O)=O)cc5)c4)cc32)c1C`, the inhibition amounted to 26% in experiment [1] and 71% in [2].
For `CCN(CC)CCNC(=O)c1c(C)[nH]c(/C=C2\C(=O)Nc3ccc(-c4cnn(-c5ccccc5)c4)cc32)c1C`, the IC50 in the experiment with FaDu [3] worked out at 6.25 µM; in the experiment with A549 [4], 5.35 µM; in the experiment on ACHN [5], 2.28 µM; with FaDu [6] it was 0.6 µM; in the experiment with A549 [7], 4.83 µM. Besides, the inhibition came to 45% in experiment [1] and 94% in experiment [2].
For `Cc1cc(C)c(/C=C2\C(=O)Nc3ccc(-c4ccc5cn[nH]c(=O)c5c4)cc32)[nH]1`, the IC50 came out at 2.55 µM in the experiment with FaDu [3]; 1.4 µM with A549 [4]; 1.12 µM with ACHN [5]; 2.96 µM in the experiment on FaDu [6]; 3 µM in the experiment on A549 [7]; 0.26 µM with ACHN [8]. In addition, the results for the Activity in experiment [9], in experiment [10] and in [11] were 39%, 1% and 24%, respectively.
On to `CCN(CC)CCNC(=O)c1c(C)[nH]c(/C=C2\C(=O)Nc3ccc(-c4cnn(-c5ncccn5)c4)cc32)c1C`, for which the inhibition in experiment [1] is 42%; in experiment [2] it was 112%.
Regarding `CCN(CC)CCNC(=O)c1c(C)[nH]c(/C=C2\C(=O)Nc3c2cccc3-c2ccc3cc[nH]c3c2)c1C`, the IC50 with FaDu [3] came out at 2.77 µM; in the experiment with A549 [4] it was 2.91 µM; with ACHN [5], 3 µM; with FaDu [6] it was 2.06 µM; in the experiment on A549 [7] it was 3.9 µM; with ACHN [8], 1.86 µM. Further, the figures for the Activity in experiment [9], in [10] and in [11] were 39%, 29% and 44%, respectively.
On to `CCN(CC)CCNC(=O)c1c(C)[nH]c(/C=C2\C(=O)Nc3ccc(-c4ccnn4-c4ccccc4F)cc32)c1C`, for which the inhibition in [1] stood at 56%; in experiment [2], 116%.
In the same order, the values of `CCN(CC)CCNC(=O)c1c(C)[nH]c(/C=C2\C(=O)Nc3ccc(-c4ccnn4-c4ccccn4)cc32)c1C` are 14% and 93%.
In the case of `CCN(CC)CCNC(=O)c1c(C)[nH]c(/C=C2\C(=O)Nc3c2cccc3-c2cncnc2)c1C`, the IC50 in the experiment on FaDu [3] amounted to 36.3 µM; with A549 [4], 21.5 µM; with ACHN [5], 16.4 µM; in the experiment on FaDu [6], 6.73 µM; with A549 [7], 27.5 µM; in the experiment with ACHN [8] it was 10.9 µM. For the same compound, the Activity in [9] is 60%; in experiment [10] it was 71%; in experiment [11], 72%.
`Cc1[nH]c(/C=C2\C(=O)Nc3ccc(-c4cnn(-c5ccccc5)c4)cc32)c(C)c1C(=O)NC1(CN2CCCCC2)CC1`: the inhibition in experiment [1] is 6%; in experiment [2], 107%.
In the case of `CCN(CC)CCNC(=O)c1c(C)[nH]c(/C=C2\C(=O)Nc3cccc(-c4ccc(-c5ccccc5)cc4)c32)c1C`, the IC50 is 1.11 µM in the experiment on FaDu [3]; 5.09 µM in the experiment with A549 [4]; 1.6 µM in the experiment on ACHN [5]; 0.28 µM with FaDu [6]; 4.32 µM in the experiment on A549 [7]; 0.33 µM in the experiment on ACHN [8]. Further, the Activity stood at 8% in experiment [9], 2% in experiment [10] and 23% in [11].
As for `CCN(CC)CCNC(=O)c1c(C)[nH]c(/C=C2\C(=O)Nc3ccc(-c4ccnn4-c4ccc(OC)cc4)cc32)c1C`, the inhibition in [1] turned out to be 34%; in experiment [2] it was 106%.
Consider `CCN(CC)CCNC(=O)c1c(C)[nH]c(/C=C2\C(=O)Nc3ccc(-c4csc(-c5ccccc5)n4)nc32)c1C`, for which the concentration for half-maximal inhibition (IC50) was 1.37 µM in the experiment with FaDu [3]; 1.74 µM in the experiment on A549 [4]; 1.37 µM in the experiment with ACHN [5]; 0.11 µM in the experiment with FaDu [6]; 0.62 µM in the experiment with A549 [7]; 0.97 µM with ACHN [8]. For the same compound, the Activity in [9] is 35%; in experiment [10] it was 5%; in experiment [11], 42%.
`Cc1[nH]c(/C=C2\C(=O)Nc3ccc(-c4cnn(-c5ccccc5)c4)cc32)c(C)c1C(=O)N[C@@H]1CCCNC1`: the values for the inhibition in experiment [1] and in experiment [2] were 22% and 130%, respectively.
For `CCN(CC)CCN(C)C(=O)c1c(C)[nH]c(/C=C2\C(=O)Nc3ccc(-c4cnn(-c5ccccc5)c4)cc32)c1C`, the results for the inhibition in experiment [1] and in experiment [2] were 3% and 113%, respectively.
In the same order, the values of `CCN(CC)CCCNC(=O)c1c(C)[nH]c(/C=C2\C(=O)Nc3ccc(-c4cnn(-c5ccccc5)c4)cc32)c1C` are 20% and 96%.
